For 7 compounds, GI50 and TGI results are on record in PubChem BioAssay (NCI).

SMILES strings stand for the structures.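 Each compound was tested at five concentrations against cells in 96-well plates for 48 hours. GI50 = concentration required for 50% inhibition of growth. TGI: concentration producing complete growth inhibition.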

Test systems include A498 renal; BT-549 breast; HT29 colon; OVCAR-3 ovarian; OVCAR-4 ovarian; RPMI-8226 leukemia; SF-268 CNS; SK-MEL-28 melanoma; SK-OV-3 ovarian; UACC-62 melanoma.
Assay in all cases: growth of human tumour cells (NCI), 48 h

On to `Cc1cc(Cl)nc(N(CCCNc2ccnc3cc(Cl)ccc23)Cc2cccs2)n1`, for which the GI50 in the experiment on A498 renal is 0.714 µM; with BT-549 breast, 2.52 µM; in the experiment with HT29 colon, 0.57 µM; in the experiment with OVCAR-3 ovarian it was 2.19 µM; in the experiment with OVCAR-4 ovarian, 2.81 µM; in the experiment with RPMI-8226 leukemia it was 0.83 µM. The GI50 with SF-268 CNS was 3.36 µM; with SK-MEL-28 melanoma it was 1.79 µM; with SK-OV-3 ovarian it was 3.27 µM; in the experiment on UACC-62 melanoma, 1.7 µM. The TGI with A498 renal turned out to be 6.99 µM; in the experiment with BT-549 breast, 9.13 µM; in the experiment on HT29 colon, 4.04 µM; with OVCAR-3 ovarian, 13.4 µM; in the experiment with OVCAR-4 ovarian, 25.6 µM; in the experiment with RPMI-8226 leukemia, 3.84 µM. Besides, the TGI with SF-268 CNS is 16.8 µM; in the experiment on SK-MEL-28 melanoma, 5.78 µM; in the experiment with SK-OV-3 ovarian it was 12.6 µM; in the experiment with UACC-62 melanoma, 4.51 µM.

Regarding `CCC[n+]1cc2cc3c(cc2c2c1-c1cc4c(cc1C2)OCO4)OCO3` (tested in a mixture with another compound), the GI50 with A498 renal is 11.2 µM; in the experiment with BT-549 breast, 0.312 µM; with HT29 colon, 1.41 µM; in the experiment on OVCAR-3 ovarian, 0.894 µM; with OVCAR-4 ovarian, 0.853 µM; in the experiment on RPMI-8226 leukemia it was 0.545 µM. Further, the GI50 is 0.0649 µM with SF-268 CNS, 0.783 µM in the experiment on SK-MEL-28 melanoma, 3.57 µM in the experiment on SK-OV-3 ovarian and 0.465 µM in the experiment with UACC-62 melanoma. Further, the TGI in the experiment with A498 renal amounted to 25.7 µM; in the experiment on BT-549 breast, 1.82 µM; in the experiment on HT29 colon, 16.6 µM; in the experiment with OVCAR-3 ovarian, 4.81 µM; with OVCAR-4 ovarian, 5.9 µM; in the experiment on RPMI-8226 leukemia it was 5.5 µM. The TGI was found to be 1.95 µM with SF-268 CNS, 2.49 µM in the experiment on SK-MEL-28 melanoma, 16.4 µM in the experiment on SK-OV-3 ovarian and 1.7 µM with UACC-62 melanoma.

Turning to `CCN(CC)S(=O)(=O)c1cccc(-c2ccc3c(NC(=O)C4CC4)n[nH]c3c2)c1`, the GI50 in the experiment with A498 renal was 1.61 µM; in the experiment with BT-549 breast, 1.53 µM; in the experiment on HT29 colon, 2.3 µM; in the experiment with OVCAR-3 ovarian, 1.9 µM; with OVCAR-4 ovarian, 1.61 µM; in the experiment with RPMI-8226 leukemia it was 1.6 µM. The GI50 with SF-268 CNS was 2.34 µM; with SK-MEL-28 melanoma it was 3.06 µM; with SK-OV-3 ovarian, 3.48 µM; with UACC-62 melanoma it was 2.28 µM. In addition, the TGI with A498 renal, in the experiment with BT-549 breast, in the experiment on HT29 colon, with OVCAR-3 ovarian, with OVCAR-4 ovarian and in the experiment with RPMI-8226 leukemia was over 6.25 µM in each case. The TGI in the experiment on SF-268 CNS, in the experiment on SK-MEL-28 melanoma, in the experiment with SK-OV-3 ovarian and with UACC-62 melanoma was over 6.25 µM in each case.

As for `Cc1cc(-c2nc3n(c2/C=N/N=C(N)N)CCS3)c(C)s1`, the GI50 is 18.5 µM in the experiment on A498 renal; 23.1 µM in the experiment on BT-549 breast; 17.4 µM in the experiment on HT29 colon; 21.9 µM in the experiment with OVCAR-3 ovarian; 36.2 µM in the experiment on OVCAR-4 ovarian; 14 µM in the experiment on RPMI-8226 leukemia. Moreover, the GI50 in the experiment with SF-268 CNS was 19.1 µM; with SK-MEL-28 melanoma, 15.1 µM; with SK-OV-3 ovarian, 19.8 µM; with UACC-62 melanoma it was 12.9 µM. The TGI is 33.6 µM in the experiment on A498 renal; 42.5 µM in the experiment with BT-549 breast; 37.6 µM in the experiment with HT29 colon; 36.3 µM with OVCAR-3 ovarian; over 100 µM in the experiment with OVCAR-4 ovarian; 30.7 µM in the experiment on RPMI-8226 leukemia. In addition, the TGI in the experiment with SF-268 CNS worked out at 35.5 µM; in the experiment on SK-MEL-28 melanoma, 29.4 µM; with SK-OV-3 ovarian it was 36.9 µM; in the experiment with UACC-62 melanoma it was 25.5 µM.

For the compound `COC(=O)c1ccc(NC(=O)c2ccc(NC3=C(Cl)C(=O)N(Cc4ccccc4)C3=O)cc2)cc1`, the GI50 in the experiment on A498 renal is 28.4 µM; in the experiment on BT-549 breast it was 16.4 µM; in the experiment on HT29 colon, 22.5 µM; in the experiment on OVCAR-3 ovarian it was 14 µM; in the experiment on OVCAR-4 ovarian it was 27 µM; in the experiment on RPMI-8226 leukemia it was 3.74 µM. The GI50 in the experiment with SF-268 CNS was 22.2 µM; in the experiment with SK-MEL-28 melanoma, 23.6 µM; with SK-OV-3 ovarian, 20.7 µM; with UACC-62 melanoma, 18.7 µM. Moreover, the TGI in the experiment on A498 renal was 58.6 µM; in the experiment with BT-549 breast, 32.1 µM; in the experiment on HT29 colon, 51.2 µM; with OVCAR-3 ovarian, 26.9 µM; in the experiment on OVCAR-4 ovarian, 60.9 µM; in the experiment with RPMI-8226 leukemia, 16.3 µM. Further, the TGI in the experiment on SF-268 CNS came out at 59 µM; in the experiment on SK-MEL-28 melanoma, 47.3 µM; in the experiment with SK-OV-3 ovarian, 38.3 µM; with UACC-62 melanoma, 37.1 µM.

Take `CN(C)c1cc2c(Nc3ccc4c(cnn4Cc4ccccc4)c3)ncnc2cn1`: the GI50 in the experiment on A498 renal is 16.7 µM; in the experiment with BT-549 breast it was 10.7 µM; in the experiment on HT29 colon, 8.98 µM; in the experiment on OVCAR-3 ovarian it was 6.43 µM; in the experiment on OVCAR-4 ovarian, 14.2 µM; in the experiment on RPMI-8226 leukemia, 10.9 µM. In addition, the GI50 was over 24.1 µM in the experiment on SF-268 CNS, 20 µM in the experiment on SK-MEL-28 melanoma, 0.104 µM in the experiment with SK-OV-3 ovarian and 6.96 µM with UACC-62 melanoma. The TGI with A498 renal, in the experiment on BT-549 breast, with HT29 colon, in the experiment on OVCAR-3 ovarian, in the experiment on OVCAR-4 ovarian and in the experiment with RPMI-8226 leukemia was over 25 µM in each case. In addition, the TGI was over 25 µM with SF-268 CNS, over 25 µM with SK-MEL-28 melanoma, over 25 µM in the experiment on SK-OV-3 ovarian and 19.9 µM in the experiment with UACC-62 melanoma.

As to `Cc1ccnc2c(NC(C)CCCN)cc(O)c(O)c12` (stereo not given), the GI50 with A498 renal is 33.4 µM; in the experiment on BT-549 breast, 36.1 µM; in the experiment on HT29 colon it was 8.07 µM; with OVCAR-3 ovarian, 2.45 µM; in the experiment on OVCAR-4 ovarian, 3.11 µM; in the experiment with RPMI-8226 leukemia, 11 µM. In addition, the GI50 was 21.2 µM with SF-268 CNS, 62.5 µM in the experiment with SK-MEL-28 melanoma, 39.3 µM in the experiment with SK-OV-3 ovarian and 32.3 µM with UACC-62 melanoma. Also, the TGI in the experiment with A498 renal is over 100 µM; in the experiment with BT-549 breast, over 100 µM; in the experiment with HT29 colon, 51.8 µM; in the experiment with OVCAR-3 ovarian, 7.24 µM; in the experiment on OVCAR-4 ovarian, 10.1 µM; in the experiment on RPMI-8226 leukemia, 76.6 µM. For the same compound, the TGI in the experiment with SF-268 CNS is 74.2 µM; in the experiment on SK-MEL-28 melanoma, over 100 µM; with SK-OV-3 ovarian it was over 100 µM; in the experiment with UACC-62 melanoma, over 100 µM.
